Key:
NaV1.7 [1] = target: T1, NaV1.7 (Homo sapiens, UniProt Q15858); experiment: Automated patch clamp (Qube 384), internal block of NaV1.7 in HEK293 cells; assay type: cell-based; details: compound in internal solution, read-out: Nav1.7 Intracellular Inhibition (IC50)
T1 construct: expressed in transfected cells; tetracycline-inducible, kept under hygromycin and blasticidin
Procedure: (§1) NaV1.7 was expressed in HEK293 cells upon induction with tetracycline. Cells were cultured in DMEM containing 10% dialyzed Fetal Bovine Serum (VWR, Radnor, Pa.), 1% Glutamax (VWR, Radnor, Pa.), 1% Penicillin-Streptomycin (VWR, Radnor, Pa.), 100 mg/L Hygromycin (Thermo Fisher Scientific, Waltham, Mass. and 5 mg/L Blasticidin (Alfa Aesar, Haverhill, Mass.). Cells were grown and maintained at 37° C. in a humidified environment containing 10% CO2 in air. Cells were detached from the culture flask for passage and harvested using 0.05% Trypsin-EDTA (Thermo Fisher Scientific, Waltham, Mass.). To induce NaV1.7, cells were induced with tetracycline (0.1-1 μg/mL, IBI Scientific, Peosta, Iowa) the day before recording.
(§2) Before experiments, cells were washed with DPBS (VWR, Radnor, Pa.), digested with Detachin (VWR Radnor, Pa.) and then triturated 10 times in CHO Serum-Free Media (VWR Radnor, Pa.) to resuspend the cells and to break apart cell aggregates. Cells were counted and the final concentration was set at 2-5 million cells per mL.
(§3) The intracellular solution contained the following: 140 mM CsF, 1 mM/5 mM EGTA/CsOH, 10 mM HEPES, 10 mM NaCl, adjusted to pH 7.3 with CsOH, and osmolality to 320 with sucrose. The external solution contained the following: 145 mM NaCl, 4 mM KCl, 1 mM MgCl2, 2 mM CaCl2, 10 mM HEPES, 10 mM Glucose, adjusted to pH 7.4 with CsOH and osmolality to 305 with sucrose. All chemicals are from Sigma-Aldrich, St. Louis, Mo. In order to test the degree of internal block by test compounds, the compounds were dissolved in internal solution at the indicated test concentration. […] In order to test the degree of external block by test compounds the compounds were dissolved in external solution at the indicated test concentration.
(§4) Automated Patch Clamps were performed on Qube 384 (Sophion Bioscience, Woburn Mass.) with multihole Qchips at a temperature setting of 22 degrees. The whole cells configuration was formed with default Qube seal and break-in parameter. The membrane potential was held at −100 mV before the voltage protocol began. Two voltage protocols were followed.
(§5) Step 1: Cells were held at −100 mV with a depolarized pulse to −20 mV for 10 ms, the interval was set at 5 s. Currents were corrected by default leak subtraction from every pulse. The duration was set at 5 mins.
(§6) Step 2: Cells were held at −100 mV with a depolarized pulse to −20 mV for 10 ms. The frequency was 5 Hz. Currents were corrected by leak subtraction calculated before step 2. The duration was set at 4 mins.
After Step 2, the Qchip was removed from the recording chamber. The internal solution was changed with solutions containing test compounds. Qchips were held at −100 mV without pulsing after being replaced in the recording chamber. The total solution switching time was 8 minutes. After the internal solution exchange, Cells were recorded and step 2 for repeated for 10 minutes.
Data analysis was performed by Sophion Analyzer. Cells were filtered with minimum 50 MOhm seal resistance and minimum 5 nA starting current. The rundown of the currents was corrected with control cells (Non-Drug). The remaining was calculated by averaging last 3 points in the end of experiments. The base line was calculated as the average of last 3 points of Step 2. IC50 curves were plotted with DR-plots/Hill function (a dose-response plot with a Hill fit). Data analysis was performed by Sophion Analyzer.

NaV1.7 [2] = target: T1, NaV1.7; experiment: Automated patch clamp (Qube 384), external block of NaV1.7 in HEK293 cells; assay type: cell-based; details: compound in external solution, read-out: Nav1.7 Extracellular Inhibition (IC50)
Procedure: as §1, §2, §3, §4, §5, §6
After Step 2, the external solution was changed with solutions containing test compounds. Qchips were held at −100 mV without pulsing. The total solution switching time was 8 minutes. After the external solution exchange, cells were recorded using the same procedure as step 2 for 10 minutes.
Data analysis was performed by Sophion Analyzer. Data were corrected with control cells (Non-Drug). The IC50 data were plotted with DR-plots/Hill function (a dose-response plot with a Hill fit).

NaV1.7 [3] = target: T1, NaV1.7; experiment: Whole cell patch clamp, internal block of NaV1.7 current (compound in internal solution); assay type: cell-based; details: % inhibition at 10 μM, compound applied internally, manual patch clamp; read-out: Nav1.7 Intracellular Inhibition
Procedure: Representative compounds of the invention were synthesized according to the described methods and tested for the ability to inhibit voltage-gated sodium channels.
as §1, with “expressed” for “expressed in HEK293 cells”, “recording and plated onto 24-well plates. Cells were washed with DPBS (VWR, Radnor, Pa.), trypsinized and then triturated five times in 10 mL of growth media to break apart cell aggregates. For one 24-well plate, 2 mL of cell suspension was mixed with 23 mL of fresh growth media and 0.1-1 μg/mL tetracycline added. 1 ml of mixed media with cells was then added to each well of a 24-well plate, with a 12 mm coverslip already placed in the bottom of the well. Cells were then incubated in 37° C. and 10% CO2 overnight.” for “recording.”
The intracellular solution contained the following (in mM) CsCl 135, NaCl 10, EGTA 10, HEPES 10, MgCl2 2, adjusted to pH 7.2 with CsOH. The external solution was a normal Ringer solution containing (in mM) NaCl 155, HEPES 10, glucose 10, KCl 3.5, CaCl2 1.5, MgCl2 1 adjusted to pH 7.4 with NaOH. CsCl is from Alfa Aesar, Haverhill, Mass. All other chemicals are from Sigma-Aldrich, St. Louis, Mo. In order to test the degree of internal block by test compounds the compounds were dissolved in internal solution at the indicated test concentration. […] In order to test the degree of external block by test compounds the compounds were dissolved in external solution at the indicated test concentration.
18-24 hours after cells were induced with tetracycline, coverslips were placed into a chamber filled with Normal Ringer solution at room temperature and the chamber placed on a microscope. Pipettes were pulled from borosilicate glass on a P97 puller (Sutter Instrument, Novato, Calif.) and polished with a MF-830 Microforge (Narishige International USA, Inc, Amityville, N.Y.) to have a resistance of 1.5-2.5 MΩ when filled with CsCl internal solution at room temperature. Healthy cells (those that are round and translucent with no visible blemishes) were chosen for seal formation. A seal was formed between the pipette and the cell, and a brief pulse of suction was used to “break in” and establish the whole-cell configuration. The membrane potential was held at −100 mV before the voltage protocol began. Only cells with series resistance between 1.5-5 MΩ were retained for analysis. The voltage protocol was as follows: Cells were held at −100 mV for 12 ms followed by a hyperpolarizing step to −105 mV for 12 ms to monitor the leak. Cells were then stepped back to −100 mV for 40 ms. Cells were then depolarized to −20 mV for 10 ms and then returned to −100 mV for 26 ms.
Once the recording was started, the voltage protocol was run at 30 second intervals for 5 minutes to get a stable baseline. This was followed by four 30-second periods of 5 Hz stimulation of the same voltage protocol separated by 1 minute of rest which was then followed by 0.33 Hz stimulation after the last train. Currents were recorded using PatchMaster software with Heka EPC10 (HEKA Electronics, Lambrecht, Germany). Only cells with inward current amplitudes at −20 mV between 400 pA and 4 nA were accepted. In addition, cells having leak currents greater than 10% of their current amplitudes were discarded. […]

[4] = PAMPA membrane permeability assay; assay type: in vitro ADME; details: PAMPA permeability coefficient, GIT lipid, buffer pH 7.4, 4 hours incubation
Procedure: The PAMPA assay (pION, Inc., Woburn Mass.) was used to determine the ability of compounds of the invention to cross an artificial lipid membrane by passive diffusion. Test compounds were dissolved in DMSO (10 mM) and diluted 200-fold in buffer (pION Inc., pH 7.4) to provide 50 uM stock solutions. Buffer (150 μL) was added to a UV blank plate and stock solutions (150 μL) were transferred to a UV reference plate. The blank and reference spectrum were read using a spectrophotometer. Stock solutions (200 μL) were added to the donor plate of the PAMPA sandwich plate and an accept plate painted with GIT lipid (pION Inc, 5 μL) was placed on top. Buffer (200 μL) was added to the acceptor plate and the PAMPA sandwich plate was incubated for 4 hours. Aliquots (150 μL) from the acceptor plate were added to a UV plate and read as acceptor spectrum. Aliquots (150 μL) of the donor solutions were added to a UV analysis plate and read as donor spectrum. The permeability coefficient of test compounds was calculated using PAMPA Explorer™ software (version 3.5.0.4) based on the AUC of the reference plate, the donor plate, and the acceptor plate.

T1 sequence (Q15858 whole entry): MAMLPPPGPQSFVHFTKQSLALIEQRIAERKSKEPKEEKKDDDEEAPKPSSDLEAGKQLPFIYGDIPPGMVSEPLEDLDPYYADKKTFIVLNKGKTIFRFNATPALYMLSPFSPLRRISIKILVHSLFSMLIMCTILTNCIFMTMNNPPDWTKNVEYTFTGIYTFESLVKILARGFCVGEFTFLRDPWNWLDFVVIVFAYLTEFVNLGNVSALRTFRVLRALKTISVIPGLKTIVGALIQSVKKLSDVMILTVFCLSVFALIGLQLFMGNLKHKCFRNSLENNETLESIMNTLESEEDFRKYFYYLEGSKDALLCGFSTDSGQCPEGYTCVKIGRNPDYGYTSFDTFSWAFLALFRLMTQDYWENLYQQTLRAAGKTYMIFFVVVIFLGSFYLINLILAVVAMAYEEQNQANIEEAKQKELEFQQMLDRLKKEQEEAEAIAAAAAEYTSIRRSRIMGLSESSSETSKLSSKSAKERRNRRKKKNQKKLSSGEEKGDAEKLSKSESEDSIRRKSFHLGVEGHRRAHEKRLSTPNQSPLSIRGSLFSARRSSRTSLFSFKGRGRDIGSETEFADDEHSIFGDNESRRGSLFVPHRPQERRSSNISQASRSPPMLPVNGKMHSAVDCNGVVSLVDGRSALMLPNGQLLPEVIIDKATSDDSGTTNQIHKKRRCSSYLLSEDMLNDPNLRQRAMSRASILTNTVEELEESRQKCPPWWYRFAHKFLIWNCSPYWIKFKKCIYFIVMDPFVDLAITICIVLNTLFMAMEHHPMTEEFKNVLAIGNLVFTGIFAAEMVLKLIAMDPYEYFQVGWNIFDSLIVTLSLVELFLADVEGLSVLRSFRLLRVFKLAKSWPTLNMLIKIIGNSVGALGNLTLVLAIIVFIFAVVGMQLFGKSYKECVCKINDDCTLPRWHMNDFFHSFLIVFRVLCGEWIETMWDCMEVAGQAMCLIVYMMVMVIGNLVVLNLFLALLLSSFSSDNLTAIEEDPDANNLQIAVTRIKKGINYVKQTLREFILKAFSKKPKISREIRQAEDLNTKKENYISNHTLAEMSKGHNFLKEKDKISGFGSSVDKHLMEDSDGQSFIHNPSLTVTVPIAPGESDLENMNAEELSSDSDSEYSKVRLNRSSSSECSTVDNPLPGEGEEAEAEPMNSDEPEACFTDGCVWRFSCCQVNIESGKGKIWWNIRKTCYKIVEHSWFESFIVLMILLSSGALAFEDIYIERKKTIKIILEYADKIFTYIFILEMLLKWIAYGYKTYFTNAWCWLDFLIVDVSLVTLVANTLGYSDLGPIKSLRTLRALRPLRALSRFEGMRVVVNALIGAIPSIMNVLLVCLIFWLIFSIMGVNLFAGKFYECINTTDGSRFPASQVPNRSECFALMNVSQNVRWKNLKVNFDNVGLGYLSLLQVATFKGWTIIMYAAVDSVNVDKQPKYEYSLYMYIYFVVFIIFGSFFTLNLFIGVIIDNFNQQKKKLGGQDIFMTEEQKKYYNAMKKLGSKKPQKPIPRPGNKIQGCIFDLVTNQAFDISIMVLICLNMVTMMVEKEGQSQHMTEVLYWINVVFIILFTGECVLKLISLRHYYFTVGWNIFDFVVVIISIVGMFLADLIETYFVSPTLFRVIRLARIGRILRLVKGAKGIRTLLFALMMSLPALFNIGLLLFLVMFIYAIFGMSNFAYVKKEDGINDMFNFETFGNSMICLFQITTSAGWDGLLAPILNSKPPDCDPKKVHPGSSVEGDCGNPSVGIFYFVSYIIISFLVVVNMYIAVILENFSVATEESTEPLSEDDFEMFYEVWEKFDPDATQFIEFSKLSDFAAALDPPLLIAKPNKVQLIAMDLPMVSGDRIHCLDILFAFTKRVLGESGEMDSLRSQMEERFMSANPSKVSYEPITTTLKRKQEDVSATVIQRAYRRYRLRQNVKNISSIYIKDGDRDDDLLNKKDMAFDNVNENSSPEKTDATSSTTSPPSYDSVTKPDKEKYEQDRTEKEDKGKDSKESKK

Structure (SMILES) | IC50 (NaV1.7 [1]) | IC50 (NaV1.7 [2]) | inhibition at 10 µM (NaV1.7 [3]) | PAMPA (10^−6 cm/s) [4]
Cc1cccc(C)c1NC(=O)C[n+]1c(C)cccc1C [Compound 6] | 1 to 3 µM | > 100 µM | – | –
Cc1cccc(C)c1NC(=O)C[n+]1cccc(-c2ccccc2)c1 [Compound 12] | 1 to 3 µM | 10 to 30 µM | – | –
Cc1cccc(C)c1NC(=O)C[n+]1ccccc1-c1ccccc1 [Compound 16] | 1 to 3 µM | > 100 µM | – | –
Cc1cccc(C)c1NC(=O)C[n+]1cccc(C2CCCC2)c1 [Compound 21] | < 1 µM | < 10 µM | – | –
Cc1cccc(C)c1NC(=O)C[n+]1cccc(C2CC2)c1 [Compound 22] | 3 to 10 µM | 30 to 100 µM | – | –
Cc1cccc(C)c1NC(=O)C[n+]1c(C)ccc(-c2ccccc2)c1C [Compound 23] | < 1 µM | < 10 µM | – | –
Cc1cccc(C)c1NC(=O)C[n+]1cc(-c2ccccc2)n(C)c1 [Compound 24] | 3 to 10 µM | > 100 µM | – | –
Cc1cccc(C)c1NC(=O)C[n+]1cccn1CC(C)C [Compound 27] | 1 to 3 µM | > 100 µM | – | –
Cc1cccc(C)c1NC(=O)C[n+]1cccn1C1CCCCC1 [Compound 28] | < 1 µM | 30 to 100 µM | – | –
Cc1cccc(C)c1NC(=O)C[n+]1cccn1-c1ccccc1 [Compound 29] | 3 to 10 µM | > 100 µM | – | –
CCNC(=O)Cn1ccc[n+]1CC(=O)Nc1c(C)cccc1C [Compound 30] | 1 to 3 µM | > 100 µM | – | –
Cc1cccc(C)c1NC(=O)C[n+]1cccc(C(C)(C)C)c1 [Compound 32] | 1 to 3 µM | > 100 µM | 70 to 95% | –
CNC(=O)c1ccc[n+](CC(=O)Nc2c(C)cccc2C)c1 [Compound 40] | 1 to 3 µM | > 100 µM | 70 to 95% | –
Cc1cccc(C)c1NC(=O)C[n+]1cccc(N)c1 [Compound 49] | 3 to 10 µM | > 100 µM | 70 to 95% | –
Cc1cccc(C)c1NC(=O)C[n+]1cccc(-c2nn[nH]n2)c1 [Compound 53] | 10 to 30 µM | – | < 40% | + (<0.1 10^−6 cm/s)
Cc1cccc(C)c1NC(=O)C[n+]1ccn(C(C)C)c1 [Compound 58] | – | – | 40 to 70% | + (<0.1 10^−6 cm/s)
Cc1cccc(C)c1NC(=O)C[n+]1cc(CO)n(C(C)C)c1 [Compound 59] | 10 to 30 µM | – | 70 to 95% | ++ (0.1-2.0 10^−6 cm/s)
CCOC(=O)Cn1cc[n+](CC(=O)Nc2c(C)cccc2C)c1 [Compound 60] | – | – | 40 to 70% | +++ (2.0-10.010^−6 cm/s)
CCNC(=O)Cn1cc[n+](CC(=O)Nc2c(C)cccc2C)c1 [Compound 62] | – | – | < 40% | + (<0.1 10^−6 cm/s)
CCCCCCn1cc[n+](CC(=O)Nc2c(C)cccc2C)c1 [Compound 63] | – | – | 40 to 70% | + (<0.1 10^−6 cm/s)
Cc1cccc(C)c1NC(=O)C[n+]1cc(F)c2ccccc2c1 [Compound 67] | 3 to 10 µM | < 10 µM | 40 to 70% | –
Cc1cccc(C)c1NC(=O)C[n+]1cc(F)ccc1-c1ccccc1 [Compound 79] | 1 to 3 µM | 30 to 100 µM | > 95% | –
Cc1cccc(C)c1NC(=O)C[n+]1c2ccc(Cl)cc2cn1C [Compound 96] | 3 to 10 µM | 30 to 100 µM | 70 to 95% | –
Cc1cccc(C)c1NC(=O)C[n+]1cc(-c2ccccc2)c2ccccc2c1 [Compound 100] | 1 to 3 µM | < 10 µM | – | –
Cc1cccc(C)c1NC(=O)C[n+]1cccc(C(=O)OC2CCCC2)c1 [Compound 105] | 1 to 3 µM | – | – | –
Cc1cccc(C)c1NC(=O)Cn1cc[n+](CC(=O)Nc2c(C)cccc2C)c1 [Compound 110] | 10 to 30 µM | – | 70 to 95% | ++ (0.1-2.0 10^−6 cm/s)
